The record followed here is US20240190855A1 (Relay Therapeutics, Inc., priority 2021, published 2024).

The target in the assay is T1, CDK2/Cyclin E complex (Homo sapiens, UniProt P24941).
T1 construct: purchased Eurofins 14-475
In words: CDK2/Cyclin E fluorescence-based microfluidic mobility shift assay (CDK2 Biochemical Caliper Assay). To be noted: read-out: Biochemical CDK2/CyclinE Caliper IC50. The method in brief:
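Wild-type CDK2/Cyclin E was preincubated with compound and ATP for 30 min at RT before the 5-FAM-QSPKKG peptide was added. Final concentrations were 0.1 nM enzyme, 2000 uM ATP, 1.5 uM peptide and 1% DMSO. After 20 hr at RT and EDTA stop, substrate conversion was read by microfluidic mobility shift over an 11-point, 3-fold dilution series.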
Turning to `Cn1nc(COCC(F)(F)F)cc1C(=O)Nc1cc([C@H]2C[C@@H](OC(=O)NC3(C)CC3)CO2)[nH]n1` [Example 771], the IC50 is ≤ 100 nM.
Regarding `C[C@H](NC(=O)O[C@H]1CO[C@@H](c2cc(NC(=O)c3cc(COC(F)F)nn3C)n[nH]2)C1)C1CC1` [Example 772], the IC50 is ≤ 100 nM.
For `Cn1nc(COC(F)(F)F)cc1C(=O)Nc1cc([C@@H]2C[C@H](OC(=O)NC3(C)CC3)CO2)[nH]n1` [Example 773] the value was ≤ 100 nM.
As for `CC(C)(C)n1cnnc1O[C@H]1CO[C@@H](c2cc(Nc3nccn4nccc34)n[nH]2)C1` [Example 774], the IC50 was ≤ 100 nM.
Consider `COCc1cc2c(Nc3cc([C@H]4C[C@@H](OC(=O)N[C@H]5C[C@H]5C)CO4)[nH]n3)nccn2n1` [Example 775], for which the IC50 is ≤ 100 nM.
As for `Cn1nc(COC(F)(F)F)cc1C(=O)Nc1cc([C@@H]2C[C@H](OC(=O)NC34CC(C3)C4)CO2)[nH]n1` [Example 776], the IC50 was ≤ 100 nM.
As for `C[C@H](NC(=O)O[C@@H]1CO[C@H](c2cc(NC(=O)c3cc(COC(F)(F)F)nn3C)n[nH]2)C1)C1CC1` [Example 780], the IC50 is ≤ 100 nM.
In the case of `CC1(NC(=O)O[C@H]2CO[C@@H](c3cc(Nc4nccn5nccc45)n[nH]3)C2)CC1` [Example 781], the IC50 was ≤ 100 nM.
Regarding `CC1(NC(=O)O[C@@H]2CO[C@H](c3cc(Nc4nccn5nccc45)n[nH]3)C2)CC1` [Example 782], the IC50 is ≤ 100 nM.
Turning to `COCc1cc2c(Nc3cc([C@H]4C[C@@H](Oc5nn(C)cc5C(C)(C)C)CO4)[nH]n3)nccn2n1` [Example 783], the IC50 was in the range of 1000 to 100000 nM.
Consider `CC(C)n1cnnc1O[C@H]1CO[C@@H](c2cc(Nc3nccn4nccc34)n[nH]2)C1` [Example 784], for which the IC50 is ≤ 100 nM.
For `Cn1nc(CC(F)(F)F)cc1C(=O)Nc1cc([C@H]2C[C@@H](OC(=O)NC3(C)CC3)CO2)[nH]n1` [Example 785] the value was ≤ 100 nM; for `Cn1nc(C(F)F)cc1C(=O)Nc1cc([C@H]2C[C@@H](OC(=O)NC3(C)CC3)CO2)[nH]n1` [Example 786], ≤ 100 nM; for `Cn1nc(OC(F)(F)F)cc1C(=O)Nc1cc([C@H]2C[C@@H](OC(=O)NC3(C)CC3)CO2)[nH]n1` [Example 787], ≤ 100 nM.
In the case of `Cn1nc(COC(F)(F)F)cc1C(=O)Nc1cc([C@H]2C[C@@H](OC(=O)NC3(C#N)CC3)CO2)[nH]n1` [Example 788], the IC50 is ≤ 100 nM.
As for `COCc1cc2c(Nc3cc([C@H]4C[C@@H](Oc5nn(C)cc5C(C)C)CO4)[nH]n3)nccn2n1` [Example 790], the IC50 lay in the range of 1000 to 100000 nM.
In the case of `Cn1nc(CCOC(F)(F)F)cc1C(=O)Nc1cc([C@H]2C[C@@H](OC(=O)NC3(C)CC3)CO2)[nH]n1` [Example 791], the IC50 is ≤ 100 nM.
In the case of `Cc1cc2c(c(Nc3cc(C4CCCC4)[nH]n3)n1)C(=O)NC2=O` [Example 792], the IC50 lay within 1000 to 100000 nM.
On to `c1cn2ncc(Nc3cc(C4CCCC4)[nH]n3)cc2n1` [Example 793], for which the IC50 fell in the range of 1000 to 100000 nM.
The same measure for `c1c(Nc2ncc3c(n2)C2CCC3C2)n[nH]c1C1CCCC1` (centres unmarked) [Example 794]: 1000 to 100000 nM; for `Cc1cc(C)n2ccnc(Nc3cc(C4CCCC4)[nH]n3)c12` [Example 795]: 1000 to 100000 nM; for `CC1(C)NC(=O)c2ccc(Nc3cc(C4CCCC4)[nH]n3)nc21` [Example 796]: ≤ 100 nM.
Take `Cc1nc(Nc2cc(C3CCCC3)[nH]n2)cc2nncn12` [Example 797]: the IC50 lay within 1000 to 100000 nM.
Take `N#CCc1c[nH]c2nccc(Nc3cc(C4CCCC4)[nH]n3)c12` [Example 798]: the IC50 was in the range of 1000 to 100000 nM.
Regarding `Cc1cncc(Cl)c1Nc1cc(C2CCCC2)[nH]n1` [Example 799], the IC50 was in the range of 1000 to 100000 nM.
On to `COC(=O)c1cc(Nc2cc(C3CCCC3)[nH]n2)cnn1` [Example 800], for which the IC50 lay in the range of 1000 to 100000 nM.
For `Clc1cccc2nc(Nc3cc(C4CCCC4)[nH]n3)cnc12` [Example 801], the IC50 was 1000 to 100000 nM.
The same measure for `Cc1cc(Nc2cc(C3CCCC3)[nH]n2)n2nc(C)cc2n1` [Example 802]: 1000 to 100000 nM; for `COC(=O)c1cnc(C)cc1Nc1cc(C2CCCC2)[nH]n1` [Example 803]: 1000 to 100000 nM; for `COc1cnc2c(Nc3cc(C4CCCC4)[nH]n3)nccc2c1` [Example 804]: 1000 to 100000 nM.
The same measure for `Cc1csc2nc(Nc3cc(C4CCCC4)[nH]n3)ncc12` [Example 805]: 1000 to 100000 nM.
As to `Cc1cc(C)nc(Nc2cc(C3CCCC3)[nH]n2)n1` [Example 806], the IC50 lay in the range of 1000 to 100000 nM.
For `CCCc1cnnc(Nc2cc(C3CCCC3)[nH]n2)c1` [Example 807] the value was 1000 to 100000 nM.
With `CCCCOc1ccc(Nc2cc(C3CCCC3)[nH]n2)nc1` [Example 808], the IC50 was in the range of 1000 to 100000 nM.
Regarding `CC1Cc2nc(Nc3cc(C4CCCC4)[nH]n3)ncc2C(C)O1` (centres unmarked) [Example 809], the IC50 was in the range of 1000 to 100000 nM.
`COc1cc(Nc2cc(C3CCCC3)[nH]n2)nc2sccc12` [Example 810]: the IC50 is 1000 to 100000 nM.
Take `COCCOc1ccnc(Nc2cc(C3CCCC3)[nH]n2)n1` [Example 811]: the IC50 fell in the range of 1000 to 100000 nM.
For the compound `Cc1cc(Nc2cc(C3CCCC3)[nH]n2)c2c(F)cccc2n1` [Example 812], the IC50 lay within 1000 to 100000 nM.
For `Oc1ccc2ccnc(Nc3cc(C4CCCC4)[nH]n3)c2c1` [Example 813], the IC50 is 1000 to 100000 nM.
For `CC(C)c1cc(Nc2cc(C3CCCC3)[nH]n2)n2ncnc2n1` [Example 817] the value was 1000 to 100000 nM; for `Cc1cn2nccc2c(Nc2cc(C3CCCC3)[nH]n2)n1` [Example 822], 250 to 1000 nM.
The same measure for `Cc1[nH]nc2nccc(Nc3cc(C4CCCC4)[nH]n3)c12` [Example 827]: 1000 to 100000 nM; for `O=C1COc2ncnc(Nc3cc(C4CCCC4)[nH]n3)c2N1` [Example 831]: 1000 to 100000 nM; for `Cc1cn2nc(Nc3cc(C4CCCC4)[nH]n3)cc(C)c2n1` [Example 832]: 1000 to 100000 nM.
For `c1cc(Nc2cc(C3CCCC3)[nH]n2)n2ccnc2n1` [Example 837] the value was 1000 to 100000 nM.
For the compound `Cc1nc(Nc2cc(C3CCCC3)[nH]n2)c2sccc2n1` [Example 839], the IC50 lay within 1000 to 100000 nM.
For `OCCOc1cncc(Nc2cc(C3CCCC3)[nH]n2)n1` [Example 842] the value was 100 to 250 nM; for `O=c1ccc2nc(Nc3cc(C4CCCC4)[nH]n3)ccc2[nH]1` [Example 849], 1000 to 100000 nM.
The same measure for `Clc1ccn2c(Nc3cc(C4CCCC4)[nH]n3)nnc2c1` [Example 850]: 1000 to 100000 nM; for `Cc1nc(Nc2cc(C3CCCC3)[nH]n2)cc(-c2ccco2)n1` [Example 853]: 1000 to 100000 nM.
`Cc1cc(C(F)(F)F)c(Nc2cc(C3CCCC3)[nH]n2)nn1` [Example 855]: the IC50 lay in the range of 1000 to 100000 nM.
As for `Cc1cnnc(Nc2cc(C3CCCC3)[nH]n2)c1C(=O)O` [Example 856], the IC50 is 1000 to 100000 nM.
As for `CS(=O)(=O)N1CCC(Nc2cc(C3CCCC3)[nH]n2)CC1` [Example 857], the IC50 was 1000 to 100000 nM.
For `Cc1cc2ccccc2c(Nc2cc(C3CCCC3)[nH]n2)n1` [Example 858] the value was 1000 to 100000 nM.
Take `Cc1cc2ncnc(Nc3cc(C4CCCC4)[nH]n3)c2[nH]1` [Example 859]: the IC50 was in the range of 1000 to 100000 nM.
Consider `Fc1cnc(Nc2cc(C3CCCC3)[nH]n2)c2ccccc12` [Example 860], for which the IC50 fell in the range of 1000 to 100000 nM.
As to `c1cc2c(Nc3cc(C4CCCC4)[nH]n3)ncnn2c1` [Example 861], the IC50 is 1000 to 100000 nM.
The same measure for `Cc1cnc(Nc2cc(C3CCCC3)[nH]n2)c(C)n1` [Example 862]: 1000 to 100000 nM; for `Cc1c(F)c(Nc2cc(C3CCCC3)[nH]n2)nc2ccccc12` [Example 863]: 1000 to 100000 nM; for `CC(C)c1nc(Nc2cc(C3CCCC3)[nH]n2)c2cc[nH]c2n1` [Example 864]: 250 to 1000 nM.
As for `COc1cnc2ncnc(Nc3cc(C4CCCC4)[nH]n3)c2c1` [Example 865], the IC50 is 1000 to 100000 nM.
`Cc1c(Nc2cc(C3CCCC3)[nH]n2)nn2cnnc2c1C` [Example 866]: the IC50 fell in the range of 1000 to 100000 nM.
Take `c1cc2c(nc1Nc1cc(C3CCCC3)[nH]n1)CCOC2` [Example 867]: the IC50 lay in the range of 1000 to 100000 nM.
For the compound `COc1cccc2ccc(Nc3cc(C4CCCC4)[nH]n3)nc12` [Example 868], the IC50 was 1000 to 100000 nM.
For `c1cn2nc3c(c2c(Nc2cc(C4CCCC4)[nH]n2)n1)CCC3` [Example 869], the IC50 was in the range of 1000 to 100000 nM.
Turning to `c1cn2nc(C3CC3)cc2c(Nc2cc(C3CCCC3)[nH]n2)n1` [Example 870], the IC50 lay in the range of 1000 to 100000 nM.
`c1ccc(-c2ncnc(Nc3cc(C4CCCC4)[nH]n3)n2)cc1` [Example 871]: the IC50 was in the range of 1000 to 100000 nM.
On to `Cc1nc(Nc2cc(C3CCCC3)[nH]n2)c(C#N)c2c1CCC2` [Example 872], for which the IC50 is 1000 to 100000 nM.
The same measure for `O=c1cc(Nc2cc(C3CCCC3)[nH]n2)c2ncccc2[nH]1` [Example 873]: 1000 to 100000 nM; for `Cc1cc(C(=O)O)c(Nc2cc(C3CCCC3)[nH]n2)nc1C` [Example 874]: 1000 to 100000 nM.
On to `CCc1c(C)nc2ncnn2c1Nc1cc(C2CCCC2)[nH]n1` [Example 875], for which the IC50 fell in the range of 1000 to 100000 nM.
With `Oc1cc(Nc2cc(C3CCCC3)[nH]n2)ncn1` [Example 876], the IC50 fell in the range of 1000 to 100000 nM.
For `c1cc2nc(Nc3cc(C4CCCC4)[nH]n3)ccn2n1` [Example 877], the IC50 fell in the range of 250 to 1000 nM.
Turning to `COc1ccc2cnnc(Nc3cc(C4CCCC4)[nH]n3)c2c1` [Example 878], the IC50 is 1000 to 100000 nM.
Regarding `Cn1nc(COC(F)(F)F)cc1C(=O)Nc1cc([C@H]2C[C@@H](OC(=O)NC(C)(C)C#N)CO2)[nH]n1` [Example 879], the IC50 is ≤ 100 nM.
Turning to `COCc1cc(C(=O)Nc2cc([C@H]3C[C@@H](OC(=O)NC4(C)CC4)CO3)[nH]n2)n(C)n1` [Example 880], the IC50 was ≤ 100 nM.
For the compound `Cn1nc(OCC(F)(F)F)cc1C(=O)Nc1cc([C@H]2C[C@@H](OC(=O)NC34CC(C3)C4)CO2)[nH]n1` [Example 881], the IC50 is ≤ 100 nM.
